Converted amounts (≈) assume the structure as drawn.
Key:
PROVIDENCIA STUARTII = assay: In vitro antibacterial activity, agar dilution MIC; assay type: cell-based; settings: 18 h
[1] = Aqueous solubility in Ringer's buffer at pH 7.5 (HPLC); assay type: physicochemical
Experimental: A known excess weight of the compound was shaken overnight with a known volume of Ringer's buffer (bicarbonate buffer containing sodium, potassium, calcium and magnesium ions, initially adjusted to pH 7.5). The contents were filtered, and the clear filtrate was analyzed after appropriate dilution using HPLC (UV absorbance detection).

[2] = Oral pharmacokinetics, blood level by disk agar diffusion bioassay; assay type: in vivo, Mice; settings: for Blood Level of Compound: mice; for serum concentrations / blood levels (in words): versus analogs A and B at 100 mg/kg
Experimental: Mice were administered the quantity of compound indicated orally, as a single dose. At the specified time intervals, blood was collected from groups of five mice. All samples were assayed by a disk agar diffusion bioassay procedure. Bacillus subtilis 6633 or Klebsiella pneumoniae 10032 were used as the assay organisms, and seek agar medium No. 1 (BBL Microbiology Systems; Cockeysville, MD) was the growth medium. The plates were incubated at 32° C for 18 h and read with an image analyzer (Optomax Inc.).

[3] = test system: STAPHYLOCOCCUS EPIDERMIDIS; assay: In vitro antibacterial activity, agar dilution MIC; assay type: cell-based; settings: 18 h; STAPHYLOCOCCUS EPIDERMIDIS 3519
ACINETOBACTER SP = assay: In vitro antibacterial activity, agar dilution MIC; assay type: cell-based; settings: 18 h; ACINETOBACTER SP CMX 669
EN[…] = assay: In vitro antibacterial activity, agar dilution MIC; assay type: cell-based; settings: Enterococcus faecium, ATCC8043, 18 h; EN[…] ATCC 8043
Experimental: (§1) The in vitro antibacterial activity of the test compound was determined by conventional agar dilution procedures. The organisms were grown overnight in brain-heart infusion (BHI) broth (Difco 0037-01-6) at 36° C. Twofold dilutions of the stock solution ([…]) of the test compound were made in BHI agar obtain a test concentration ranging from […]. The plate was inoculated with approximately 10^4 organisms. It was then incubated at 36° C. for 18 h. the minimal inhibitory concentration was the lowest concentration of the test compound that yielded no visible growth on the plate.

E. coli = assay: In vitro antibacterial activity, agar dilution MIC; assay type: cell-based; settings: Escherichia coli, 18 h
Experimental: as §1

M[…] = assay: In vitro antibacterial activity, agar dilution MIC; assay type: cell-based; settings: Micrococcus luteus
Experimental: as §1

S. aureus = assay: In vitro antibacterial activity, agar dilution MIC; assay type: cell-based; settings: Staphylococcus aureus, 18 h
Experimental: as §1

S. pyogenes = assay: In vitro antibacterial activity, agar dilution MIC; assay type: cell-based; settings: Streptococcus pyogenes, 18 h
P. aeruginosa = assay: In vitro antibacterial activity, agar dilution MIC; assay type: cell-based; settings: Pseudomonas aeruginosa, 18 h
PSEUDOMONAS CEPACIA = assay: In vitro antibacterial activity, agar dilution MIC; assay type: cell-based; settings: Burkholderia cepacia, 18 h; PSEUDOMONAS CEPACIA 296I
STREPTOCOCCUS BOVIS = assay: In vitro antibacterial activity, agar dilution MIC; assay type: cell-based; settings: Streptococcus equinus, 18 h; STREPTOCOCCUS BOVIS A5196
K. pneumoniae = assay: In vitro antibacterial activity, agar dilution MIC; assay type: cell-based, Klebsiella pneumoniae; settings: ATCC8045, 18 h; KLEBSIELLA PNEUMONIAE ATCC 8045; read-out: MIC
S. agalactiae = assay: In vitro antibacterial activity, agar dilution MIC; assay type: cell-based; settings: Streptococcus agalactiae, 18 h; STR[…] 508 (Table 2)
[4] = compared with 2-unsubstituted aminopyrrolidine analogs
[5] = ATCC6538P, STAPHYLOCOCCUS AUREUS ATCC 6538P
[6] = STREPTOCOCCUS PYOGENES 930 CONST

Structure (SMILES)	MIC (PROVIDENCIA STUARTII) [µg/mL]	MIC [3] [µg/mL]	MIC (ACINETOBACTER SP) [µg/mL]	MIC (EN[…]) [µg/mL]	MIC (E. coli; ESCHERICHIA COLI DC-2) [µg/mL]	MIC (E. coli; ESCHERICHIA COLI H560) [µg/mL]	MIC (E. coli; ESCHERICHIA COLI JUHL) [µg/mL]	MIC (E. coli; ESCHERICHIA COLI KNK 437) [µg/mL]	MIC (E. coli; ESCHERICHIA COLI SS) [µg/mL]	MIC (M[…]; ATCC4698, 18 h, M[…] ATCC 4698) [µg/mL]	MIC (M[…]; ATCC9341, 18 h, M[…] ATCC 9341) [µg/mL]	MIC (S. aureus; STAPHYLOCOCCUS AUREUS 45) [µg/mL]	MIC (S. aureus; STAPHYLOCOCCUS AUREUS 45RAR2) [µg/mL]	MIC (S. aureus; STAPHYLOCOCCUS AUREUS A5177) [µg/mL]	MIC (S. aureus; STAPHYLOCOCCUS AUREUS CMX 503A) [µg/mL]	MIC (S. aureus; STAPHYLOCOCCUS AUREUS CMX 553) [µg/mL]	MIC (S. aureus; STAPHYLOCOCCUS AUREUS CMX 6868) [µg/mL]	MIC (S. aureus; [5]) [µg/mL]	MIC (S. pyogenes; [6]) [µg/mL]	MIC (S. pyogenes; STREPTOCOCCUS PYOGENES EE561) [µg/mL]	further results
C[C@H]1C[C@H](N)CN1c1cc2c(cc1F)c(=O)c(C(=O)O)cn2-c1ccc(F)cc1F [Example 6]	1.56 (≈ 3.74 µM)	0.2 (≈ 0.479 µM)	0.1 (≈ 0.24 µM)	0.1 (≈ 0.24 µM)	0.2 (≈ 0.479 µM)	0.2 (≈ 0.479 µM)	0.05 (≈ 0.12 µM)	0.2 (≈ 0.479 µM)	≤ 0.002	0.1 (≈ 0.24 µM)	0.2 (≈ 0.479 µM)	0.1 (≈ 0.24 µM)	0.1 (≈ 0.24 µM)	0.2 (≈ 0.479 µM)	0.1 (≈ 0.24 µM)	0.1 (≈ 0.24 µM)	0.05 (≈ 0.12 µM)	0.02 (≈ 0.0479 µM)	0.2 (≈ 0.479 µM)	0.2 (≈ 0.479 µM)	AQUEOUS SOLUBILITY ([1]; at pH 7.5 in Ringer's buffer): 0.053 mg/mL; solubility properties (in words) [1, 4]: significantly improved aqueous solubility properties; oral absorption properties (in words) [2, 4]: greatly improved oral absorption properties; Blood Level of Compound ([2]; oral 25 mg/kg, t = 0.5 h): 3700 ng/mL; Blood Level of Compound ([2]; oral 25 mg/kg, t = 1.0 h): 4300 ng/mL; Blood Level of Compound ([2]; oral 25 mg/kg, t = 2.0 h): 2800 ng/mL; Blood Level of Compound ([2]; oral 25 mg/kg, t = 3.0 h): 1100 ng/mL; Blood Level of Compound ([2]; oral 25 mg/kg, t = 6.0 h): 100 ng/mL; Blood Level of Compound ([2]; oral 25 mg/kg, t = 24.0 h): 0 ng/mL; serum concentrations / blood levels (in words) ([2]; oral 25 mg/kg): still achieve better blood; serum concentrations / blood levels (in words) ([2]; oral 25 mg/kg, listed as Compound 6): higher serum concentrations; MIC (P. aeruginosa; PSEUDOMONAS AERUGINOSA A5007): 3.1 µg/mL (≈ 7.43 µM); MIC (P. aeruginosa; PSEUDOMONAS AERUGINOSA BMH10): 0.78 µg/mL (≈ 1.87 µM); MIC (P. aeruginosa; PSEUDOMONAS AERUGINOSA K799/61): 0.02 µg/mL (≈ 0.0479 µM); MIC (P. aeruginosa; PSEUDOMONAS AERUGINOSA K799/WT): 0.39 µg/mL (≈ 0.934 µM); MIC (PSEUDOMONAS CEPACIA): 12.5 µg/mL (≈ 29.9 µM); MIC (STREPTOCOCCUS BOVIS): 0.2 µg/mL (≈ 0.479 µM); MIC (K. pneumoniae): 0.02 µg/mL (≈ 0.0479 µM); MIC (S. agalactiae): 0.1 µg/mL (≈ 0.24 µM)
NC1CCN(c2cc3c(cc2F)c(=O)c(C(=O)O)cn3-c2ccc(F)cc2F)C1 (stereo not shown) [Example B, 7-(3-Amino-pyrrolidin-1-yl)-1-(2,4-difluorophenyl)-1,4-dihydro-6-fluoro--oxo-quinoline-3-carboxylic acid, reference compound]	1.56 (≈ 3.87 µM)	0.1 (≈ 0.248 µM)	0.05 (≈ 0.124 µM)	0.2 (≈ 0.496 µM)	0.2 (≈ 0.496 µM)	0.02 (≈ 0.0496 µM)	0.02 (≈ 0.0496 µM)	0.2 (≈ 0.496 µM)	0.002 (≈ 0.00496 µM)	0.78 (≈ 1.93 µM)	0.39 (≈ 0.967 µM)	0.1 (≈ 0.248 µM)	0.1 (≈ 0.248 µM)	0.05 (≈ 0.124 µM)	0.05 (≈ 0.124 µM)	0.05 (≈ 0.124 µM)	0.05 (≈ 0.124 µM)	0.02 (≈ 0.0496 µM)	0.1 (≈ 0.248 µM)	0.2 (≈ 0.496 µM)	solubility ([1]; at pH 7.5 in Ringer's buffer): 8 µg/mL (≈ 19.8 µM); Blood Level of Compound ([2]; oral 100 mg/kg, t = 1.0 h): 500 ng/mL; Blood Level of Compound ([2]; oral 100 mg/kg, t = 2.0 h): 700 ng/mL; Blood Level of Compound ([2]; oral 100 mg/kg, t = 3.0 h): 900 ng/mL; Blood Level of Compound ([2]; oral 100 mg/kg, t = 6.0 h): 700 ng/mL; Blood Level of Compound ([2]; oral 100 mg/kg, t = 24.0 h): 0 ng/mL; MIC (P. aeruginosa; PSEUDOMONAS AERUGINOSA A5007): 0.2 µg/mL (≈ 0.496 µM); MIC (P. aeruginosa; PSEUDOMONAS AERUGINOSA BMH10): 0.1 µg/mL (≈ 0.248 µM); MIC (P. aeruginosa; PSEUDOMONAS AERUGINOSA K799/61): 0.05 µg/mL (≈ 0.124 µM); MIC (P. aeruginosa; PSEUDOMONAS AERUGINOSA K799/WT): 0.2 µg/mL (≈ 0.496 µM); MIC (PSEUDOMONAS CEPACIA): 6.2 µg/mL (≈ 15.4 µM); MIC (STREPTOCOCCUS BOVIS): 0.39 µg/mL (≈ 0.967 µM); MIC (K. pneumoniae): 0.01 µg/mL (≈ 0.0248 µM); MIC (S. agalactiae): 0.2 µg/mL (≈ 0.496 µM)

— patent US4962112A, “7-(2-methyl-4-aminopyrrolidinyl)naphthryidine and quinoline compounds” (Abbott Laboratories, priority 1988, dated 1990)
